Measurements from patent US10597375B2, “Halogen-substituted heterocyclic compound” (UBE INDUSTRIES, LTD., priority 2012, dated 2020).

Tests used:
[1] = biological target: T1, human LPA1 receptor (Homo sapiens, UniProt Q92633); experiment: Binding test of GTPγS to LPA1 receptor; format: biochemical; details: membrane fraction of RH 7777 cells expressed with human LPA1 receptor; LPA 100 nM; read-out: IC50: concentration of the test compound which inhibits the binding of LPA1 receptor and [35S]GTPγS by 50%
T1 construct: purchased ChanTest A324; host or cells: RH 7777 cells (recombinant expression; membrane fraction)
Protocol: Binding test of GTPγS to LPA1 receptor
5 μg of the membrane fraction of RH 7777 cells expressed with human LPA1 receptor (A324, ChanTest) was suspended in a reaction buffer (20 mM HEPES, 100 mM NaCl, 10 mM MgCl2, 10 μM GDP, 5 μg saponin, 0.2% BSA, 0.1 nM [^35S]GTPγS (NEG030X, Perkin Elmer), pH 7.4), and the test compound dissolved in DMSO in various concentrations was added. After preincubation at 30° C. for 15 minutes, LPA (L7260, Sigma, the final concentration of 100 nM) was added, and the suspension was incubated at 30° C. for 30 minutes. The membrane fraction was collected onto a glass fiber filter (GF/B, Whatman) by using a cell harvester (M30, Brandel), and washed with a 10 mM phosphate buffer (pH 7.4). The radioactivity of the membrane fraction was measured using a liquid scintillation analyzer (2900TR, Packard) and the concentration of the test compound which inhibits the binding of LPA1 receptor and [^35S]GTPγS by 50%, (1050) was determined by non-linear regression analysis using EXSAS (version 7.6.0, Arm Systex).

[2] = test system: LPA-induced histamine release; experiment: LPA-induced histamine release test in mouse; format: in vivo; details: male CD1 mice; oral dose of 10 mg/kg; LPA 300 μg/mouse via tail vein 4 hours after administration; blood 2 minutes after LPA; read-out: efficacy rate (rate of individuals which showed the inhibition rate of 80% or more of plasma histamine)
Summary of the method: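 Male CD1 mice dosed orally with compound suspended in 0.5% methylcellulose; 4 h later, LPA (300 μg/mouse) given i.v. via tail vein. Blood drawn 2 min after LPA under isoflurane, EDTA plasma histamine measured by EIA.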

[3] = test system: A2058 human melanoma cells; experiment: Cell migration test (LPA-induced, Chemo-Tx); format: cell-based; details: LPA 100 nM, 3 hours, read-out: IC50: concentration of the test compound which inhibits the cell migration activity of LPA by 50%
Summary of the method: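 A2058 cells, serum-starved 24 h, pretreated 15 min at 37° C with compound (0.5% DMSO final). Migration over 3 h at 37° C through fibronectin-coated filters toward 100 nM LPA (final). Migrated cells stained, absorbance at 570 nm; IC50 from non-linear regression.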

T1 sequence (Q92633 whole entry): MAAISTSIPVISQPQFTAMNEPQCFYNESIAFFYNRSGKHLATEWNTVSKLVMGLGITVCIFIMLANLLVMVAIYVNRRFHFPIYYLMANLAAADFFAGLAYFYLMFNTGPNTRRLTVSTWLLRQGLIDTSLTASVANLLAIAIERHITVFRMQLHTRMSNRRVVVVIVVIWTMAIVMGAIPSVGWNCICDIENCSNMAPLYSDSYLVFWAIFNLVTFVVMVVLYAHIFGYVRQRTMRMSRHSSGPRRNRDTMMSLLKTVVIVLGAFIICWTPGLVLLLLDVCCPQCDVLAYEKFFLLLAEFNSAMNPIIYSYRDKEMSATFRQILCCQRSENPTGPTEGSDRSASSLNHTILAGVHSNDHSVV

SMILES | IC50 [1] | IC50 [3] | responders at 10 mg/kg [2]
C[C@@H](OC(=O)Nc1cc(F)sc1-c1ccc(-c2ccc(C3(C(=O)O)CC3)cc2)cc1)c1ccccc1 [I-100, (R)-1-[4′-(5-Fluoro-3-{[(1-phenylethoxy)carbonyl]amino}thiophen-2-yl)-[1,1′-biphenyl]-4-yl]cyclopropanecarboxylic acid] | ≤ 200 nM | ≤ 200 nM | ≥ 50%
C[C@@H](OC(=O)Nc1cc(F)sc1-c1ccc(-c2ccc(C3(C(=O)O)CC3)cc2)cc1)c1ccccc1F [I-104, (R)-1-{4′-[5-Fluoro-3-({[1-(2-fluorophenyl)ethoxy]carbonyl}amino)thiophen-2-yl]-[1,1′-biphenyl]-4-yl}cyclopropanecarboxylic acid] | ≤ 200 nM | ≤ 200 nM | ≥ 50%
C[C@@H](OC(=O)Nc1cc(F)sc1-c1ccc(-c2ccc(C3(C(=O)O)CC3)cc2)cc1)c1ccc(F)cc1 [I-112, (R)-1-{4′-[5-Fluoro-3-({[1-(4-fluorophenyl)ethoxy]carbonyl}amino)thiophen-2-yl]-[1,1′-biphenyl]-4-yl}cyclopropanecarboxylic acid] | ≤ 200 nM | ≤ 200 nM | ≥ 50%
C[C@@H](OC(=O)Nc1cc(F)sc1-c1ccc(-c2ccc(C3(C(=O)O)CC3)cc2)cc1)c1ccccc1Cl [I-122, (R)-1-{4′-[3-({[1-(2-Chlorophenyl)ethoxy]carbonyl}amino)-5-fluorothiophen-2-yl]-[1,1′-biphenyl]-4-yl}cyclopropanecarboxylic acid] | ≤ 200 nM | ≤ 200 nM | ≥ 50%
C[C@@H](OC(=O)Nc1cc(F)sc1-c1ccc(-c2ccc(C3(C(=O)O)CC3)cc2)cc1)c1ccc(Cl)cc1 [I-126, (R)-1-{4′-[3-({[1-(4-Chlorophenyl)ethoxy]carbonyl}amino)-5-fluorothiophen-2-yl]-[1,1′-biphenyl]-4-yl}cyclopropanecarboxylic acid] | ≤ 200 nM | ≤ 200 nM | ≥ 50%
C[C@@H](OC(=O)Nc1cc(F)sc1-c1ccc(-c2ccc(C3(C(=O)O)CC3)cc2)cc1)c1ccc(F)cc1Cl [I-152, (R)-1-{4′-[3-({[1-(2-Chloro-4-fluorophenyl)ethoxy]carbonyl}amino)-5-fluorothiophen-2-yl]-[1,1′-biphenyl]-4-yl}cyclopropanecarboxylic acid] | ≤ 200 nM | ≤ 200 nM | ≥ 50%

Second part, led by results:

IC50 [1] | IC50 [3] | SMILES | responders at 10 mg/kg [2]
≤ 200 nM | ≤ 200 nM | C[C@@H](OC(=O)Nc1cc(Cl)sc1-c1ccc(-c2ccc(C3(C(=O)O)CC3)cc2)cc1)c1ccccc1Cl [I-52, (R)-1-{4′-[5-Chloro-3-({[1-(2-chlorophenyl)ethoxy]carbonyl}amino)thiophen-2-yl]-[1,1′-biphenyl]-4-yl}cyclopropanecarboxylic acid] | ≥ 50%
≤ 200 nM | ≤ 200 nM | C[C@@H](OC(=O)Nc1cc(Cl)sc1-c1ccc(-c2ccc(C3(C(=O)O)CC3)cc2)cc1)c1ccc(Cl)cc1 [I-56, (R)-1-{4′-[5-Chloro-3-({[1-(4-chlorophenyl)ethoxy]carbonyl}amino)thiophen-2-yl]-[1,1′-biphenyl]-4-yl}cyclopropanecarboxylic acid] | ≥ 50%
≤ 200 nM | ≤ 200 nM | Cc1ccccc1[C@@H](C)OC(=O)Nc1cc(Cl)sc1-c1ccc(-c2ccc(C3(C(=O)O)CC3)cc2)cc1 [I-60, (R)-1-{4′-[5-Chloro-3-({[1-(o-tolyl)ethoxy]carbonyl}amino)thiophen-2-yl]-[1,1′-biphenyl]-4-yl}cyclopropanecarboxylic acid] | ≥ 50%
